How the values were obtained:
[1] = biological target: T1, CDK7/Cyclin H/MAT-1 complex (Homo sapiens, UniProt P50613); assay: Absorbance kinetic assay (20 nM CDK7/Cyclin H/MAT-1 complex); format: biochemical; details: for IC50: read-out: CDK7 (20 nM) pIC50 (converted)
T1 construct: Human CDK7 (amino acids 1-346); His6 (N); TEV protease cleavage site (N); made in house; host or cells: baculovirus-SF9 insect cells
Summary of the method: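 Trimeric complex (His6-TEV CDK7 1-346, MAT1 1-309, cyclin H 1-323) from Sf9 cells, at 20 nM, phosphorylating RNA Pol II-derived CDK7/9-tide; ADP coupled via PK/LDH to NADH depletion read at 340 nm every 2 min for 8 h. Steady-state slopes gave % inhibition; IC50 from 11-point Hill fit.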

T1 sequence (P50613 whole entry, the tested form may be a part): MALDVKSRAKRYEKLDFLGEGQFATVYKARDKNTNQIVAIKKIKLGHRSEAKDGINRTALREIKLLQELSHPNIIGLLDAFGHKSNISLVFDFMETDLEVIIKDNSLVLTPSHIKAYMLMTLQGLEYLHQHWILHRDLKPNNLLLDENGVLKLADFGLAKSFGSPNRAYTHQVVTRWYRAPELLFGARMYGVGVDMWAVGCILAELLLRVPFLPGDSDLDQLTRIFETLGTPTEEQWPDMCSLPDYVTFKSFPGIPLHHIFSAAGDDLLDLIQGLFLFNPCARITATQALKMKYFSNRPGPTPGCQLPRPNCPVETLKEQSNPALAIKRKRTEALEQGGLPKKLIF
T1 sequence (P51946 whole entry partner, the tested form may be a part): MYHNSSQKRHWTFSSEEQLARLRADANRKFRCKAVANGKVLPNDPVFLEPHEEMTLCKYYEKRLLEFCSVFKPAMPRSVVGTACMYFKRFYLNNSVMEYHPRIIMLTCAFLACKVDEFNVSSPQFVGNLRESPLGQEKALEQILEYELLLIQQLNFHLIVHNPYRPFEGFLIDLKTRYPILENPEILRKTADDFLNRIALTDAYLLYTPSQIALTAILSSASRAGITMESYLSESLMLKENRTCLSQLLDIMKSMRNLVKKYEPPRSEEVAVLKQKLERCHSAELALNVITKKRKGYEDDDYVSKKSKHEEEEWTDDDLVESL
T1 sequence (P51948 whole entry partner, the tested form may be a part): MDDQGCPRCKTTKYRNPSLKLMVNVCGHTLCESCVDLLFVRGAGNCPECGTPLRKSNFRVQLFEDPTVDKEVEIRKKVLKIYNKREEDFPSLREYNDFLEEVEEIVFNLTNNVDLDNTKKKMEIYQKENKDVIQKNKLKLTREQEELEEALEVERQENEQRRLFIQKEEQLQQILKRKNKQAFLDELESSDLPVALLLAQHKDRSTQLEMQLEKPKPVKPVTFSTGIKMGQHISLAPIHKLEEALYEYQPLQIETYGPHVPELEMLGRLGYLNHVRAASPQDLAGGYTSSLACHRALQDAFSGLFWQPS

## C[C@@H]1Cc2cnc(NC3CCN(S(C)(=O)=O)CC3)nc2CN1C(=O)N1CCN(C)C[C@@H]1c1ccccc1 [Compound 209]
[1]
  CDK7 (20 nM) pIC50: 7.77

## C[C@@H]1Cc2cnc(NC3CCOCC3)nc2CN1C(=O)[C@H]1CCN(C)C[C@@H]1c1ccccc1 [Compound 47]
[1]
  CDK7 (20 nM) pIC50: >7.7
other
  melting point: 162.7 °C

## C[C@@H]1Cc2cnc(N[C@H]3CCOC4(CCC4)C3)nc2CN1C(=O)[C@H]1CCN(C)C[C@@H]1c1ccccc1 (relative stereo) [Compound 9]
[1]
  IC50: < 9.77 nM

## C[C@@H]1Cc2cnc(NCc3ccccc3)nc2CN1C(=O)[C@H]1CCN(C)C[C@@H]1c1ccccc1 [Compound 43]
[1]
  CDK7 (20 nM) pIC50: 8.01

## Cc1cccc([C@H]2CN(C(C)C)CC[C@@H]2C(=O)N2Cc3nc(NC4CCOCC4)ncc3C[C@H]2C)c1 [Compound 166]
[1]
  CDK7 (20 nM) pIC50: 7.74

## C[C@@H]1Cc2cnc(N[C@H]3CCC[C@H](O)C3)nc2CN1C(=O)[C@H]1CCN(C)C[C@@H]1c1ccccc1 [Compound 59]
[1]
  CDK7 (20 nM) pIC50: >8.01

## C[C@H]1Cc2cnc(NC3(c4ccccc4)COC3)cc2CN1C(=O)[C@H]1CCN(C)C[C@@H]1c1ccccc1 (single isomer, unassigned) [Compound 175]
[1]
  CDK7 (20 nM) pIC50: 7.52

## CN1CC[C@H](C(=O)N2Cc3nc(NC4CCOCC4)ncc3[C@@H]3C[C@@H]32)[C@@H](c2ccccc2)C1 [Compound 199]
[1]
  CDK7 (20 nM) pIC50: >8.01

## C[C@@H]1Cc2cnc(NC3CCC(OC(F)F)CC3)nc2CN1C(=O)[C@H]1CCN(C)C[C@@H]1c1ccccc1 (stereo partly drawn) [Compound 69]
[1]
  CDK7 (20 nM) pIC50: >8.01

## C[C@@H]1Cc2cnc(Nc3cnn4c3CCCC4)nc2CN1C(=O)[C@H]1CCN(C)C[C@@H]1c1ccccc1 [Compound 77]
[1]
  CDK7 (20 nM) pIC50: 7.53

## CC(C)n1cc(Nc2ncc3c(n2)CN(C(=O)[C@H]2CCN(C)C[C@@H]2c2ccccc2)[C@H](C)C3)cn1 [Compound 89]
[1]
  CDK7 (20 nM) pIC50: 6.1

## C[C@@H]1Cc2cnc(N[C@H]3CC[C@H](C)CC3)nc2CN1C(=O)[C@H]1CCN(C)C[C@@H]1c1ccccc1 [Compound 13]
[1]
  CDK7 (20 nM) pIC50: 8.01

## Cc1cc(Nc2ncc3c(n2)CN(C(=O)[C@H]2CCN(C)C[C@@H]2c2ccccc2)[C@H](C)C3)ccn1 [Compound 78]
[1]
  CDK7 (20 nM) pIC50: 7.93

## Cc1cccc([C@H]2CN(C)CC[C@@H]2C(=O)N2Cc3nc(NC4CCOCC4)ncc3C[C@H]2C)c1 [Compound 93]
[1]
  CDK7 (20 nM) pIC50: >8.01

## C[C@@H]1Cc2cnc(N[C@@H]3CCOC(C)(C)C3)nc2CN1C(=O)[C@H]1CCN(C)C[C@@H]1c1ccccc1 (relative stereo) [Compound 40]
[1]
  IC50: 11 nM

## CN1CC[C@H](C(=O)N2Cc3nc(Nc4cnn(C)c4)ncc3[C@@H]3C[C@@H]32)[C@@H](c2ccccc2)C1 [Compound 200]
[1]
  CDK7 (20 nM) pIC50: 7.46

## C[C@@H]1Cc2cnc(NC[C@@H]3CCCO3)nc2CN1C(=O)[C@H]1CCN(C)C[C@@H]1c1ccccc1 [Compound 67]
[1]
  IC50: < 9.77 nM

## C[C@@H]1Cc2cnc(NC3CCN(CC(F)(F)F)CC3)nc2CN1C(=O)[C@H]1CCN(C)C[C@@H]1c1ccccc1 [Compound 45]
[1]
  CDK7 (20 nM) pIC50: 7.62

## C[C@@H]1Cc2cnc(NC3CCOCC3)nc2CN1C(=O)[C@H]1CCN(C)C[C@@H]1c1ccc(Cl)c(F)c1 [Compound 122b]
[1]
  CDK7 (20 nM) pIC50: 7.15

## C[C@@H]1Cc2cnc(NCc3ccn(C)n3)nc2CN1C(=O)[C@H]1CCN(C)C[C@@H]1c1cccc(OC(F)(F)F)c1 (relative stereo) [Compound 128]
[1]
  IC50: 18.6 nM

## CN1CC[C@H](C(=O)N2Cc3nc(NCc4ccn(C)n4)ncc3CC2(C)C)[C@@H](c2ccccc2)C1 (single isomer, unassigned) [Compound 191]
[1]
  CDK7 (20 nM) pIC50: 6.53

## C[C@@H]1Cc2cnc(NC3CCS(=O)(=O)CC3)nc2CN1C(=O)[C@H]1CCN(C)C[C@@H]1c1ccccc1 [Compound 44]
[1]
  CDK7 (20 nM) pIC50: >7.7

## C[C@@H]1Cc2cnc(NC(C)(C)c3cnn(C)c3)nc2CN1C(=O)[C@H]1CCN(C)C[C@@H]1c1ccccc1 [Compound 90]
[1]
  CDK7 (20 nM) pIC50: 7.43

## C[C@@H]1c2nc(NC3CCOCC3)ncc2[C@@H](C)CN1C(=O)[C@H]1CCN(C)C[C@@H]1c1ccccc1 [Compound 180a]
[1]
  CDK7 (20 nM) pIC50: >8.01

## C[C@@H]1Cc2cnc(NCC3CCS(=O)(=O)C3)nc2CN1C(=O)[C@H]1CCN(C)C[C@@H]1c1ccccc1 (stereo partly drawn) [Compound 49]
[1]
  CDK7 (20 nM) pIC50: 6.62

## C[C@@H]1Cc2cnc(NC3CCN(S(=O)(=O)N(C)C)CC3)nc2CN1C(=O)N1CCN(C)C[C@@H]1c1ccccc1 [Compound 211]
[1]
  CDK7 (20 nM) pIC50: >7.7
